Experiments:
[1] = Stability test in liver microsomes; format: in vitro ADME, CD-1 mouse; details: mouse liver microsomes, 0.5 mg/mL, 1.0 µM substrate
Experimental: Phase I metabolic stability of the test compounds in liver microsomes of CD-1 mice, Sprague-Dawley rats, and humans was assessed.
The animal and human liver microsomes used in the test system were purchased from Xenotech, Corning, or other qualified suppliers and stored in a freezer at a temperature below -60 °C prior to use. The information of the animal and human liver microsomes used was as follows:
The test samples and the reference compounds were separately incubated with animal and human liver microsomes at 37±1 °C for a period of incubation time of up to 60 min. The samples were taken out at the indicated time points, and the reaction was stopped with acetonitrile or another organic solvent containing an internal standard. After centrifugation, the resulting supernatants were assayed by the liquid chromatography-tandem mass spectrometry (LC-MS/MS) method.
Microsomes of each species were diluted into a 2× working solution with a 100 mM potassium phosphate buffer. […]
Incubation was performed in a 96-well plate. Eight incubation plates were prepared and designated T0, T5, T15, T30, T45, T60, Blank60, and NCF60, respectively. The first 6 plates corresponded to reaction time points of 0 min, 5 min, 15 min, 30 min, 45 min, and 60 min, respectively. No test sample or reference compound was added to the Blank60 plate, and samples were taken after 60 min of incubation. In the NCF60 plate, incubation was performed for 60 min using the potassium phosphate buffer instead of the NADPH regeneration system solution. Three replicates were made for samples in all conditions.
The microsomes and the test sample or reference compound were mixed, and then the incubation plates Blank60, T5, T15, T30, T45, and T60 except for T0 and NCF60 were placed in a 37 °C water bath for pre-incubation for about 10 min. In the incubation plate T0, a stop solution was first added, followed by the addition of the NADPH regeneration system working solution, and 98 µL of the potassium phosphate buffer was added to each sample well of the incubation plate NCF60 to initiate the reaction. After the pre-incubation of the incubation plates Blank60, T5, T15, T30, T45, and T60 was completed, 98 µL of the NADPH regeneration system working solution was added to each sample well to initiate the reaction. The reaction temperature was 37±1 °C, the final volume of the reaction was 200 µL, and the reaction system included 0.5 mg/mL microsomes, 1.0 µM substrate, 1 mM NADP, 6 mM ISO, and 1 unit/mL IDH.
At 5 min, 15 min, 30 min, 45 min, and 60 min, a cold stop solution containing an internal standard was added to the reaction plate to stop the reaction.
All the reaction plates after the reaction was stopped were shaken well and centrifuged at 3220× g at 4 °C for 20 min. After the supernatant was diluted at a certain ratio, LC-MS/MS analysis was performed.
Sample analysis was performed by the liquid chromatography-tandem mass spectrometry (LC-MS/MS) method without standard curves and quality control samples. Semi-quantitative determination was performed according to the ratio of the analyte peak area to the internal standard peak area. The retention times of the analyte and internal standard, the chromatogram acquisition, and chromatogram integration were processed using the Analyst software (Sciex, Framingham, Massachusetts, USA).
According to the well stir model, the hepatic intrinsic clearance and hepatic clearance can be converted through the following formula. CL(liver) = (CLint(liver)×Qh)/(CLint(liver)+Qh) [formula]

[2] = Pharmacokinetic test in rats; format: in vivo; details: rat, plasma, SD rats; for bioavailability: PO 10 mg/kg vs IV 2 mg/kg
Experimental: In this experimental example, the pharmacokinetic behavior of the test compounds after administration by intravenous injection (IV) and oral gavage (PO) in SD rats was tested. Preparation of formulations for administration referred to the low-dose pharmacokinetic test in mice.
On the day of administration, rats were weighed for actual body weight, and the administration volume was calculated. Each compound was tested in two groups with 3 rats in each group; one group was subjected to administration by single intravenous injection, and the other group was subjected to administration by single gavage. The whole blood samples were collected via the jugular vein at prescribed time points (0.25 h, 0.5 h, 1 h, 2 h, 4 h, 8 h, and 24 h after administration). After the blood sample collection, the samples were immediately transferred to labeled commercial sample tubes containing K2-EDTA (0.85-1.15 mg), followed by centrifugation (3200× g, 4 °C, 10 min) and plasma collection. The plasma was transferred to a pre-cooled centrifuge tube, frozen in dry ice, and then stored in an ultra-low temperature freezer at -60 °C or lower until the LC-MS/MS analysis was performed.
Plasma concentrations were determined by the LC-MS/MS method. Plasma drug concentration data for the compounds were processed using a non-compartmental model in the WinNonlin Version 6.3 (Pharsight, Mountain View, CA) pharmacokinetic software. The relevant pharmacokinetic parameters were calculated by a linear-log trapezoidal method.

Compound	half-life at 1 µM [1] [h]	AUC(0-t) ([2]; IV 2 mg/kg) [µM·h]	MRT ([2]; IV 2 mg/kg) [h]	clearance ([2]; IV 2 mg/kg) [mL/min/kg]	half-life ([2]; IV 2 mg/kg) [h]	AUC(0-t) ([2]; PO 10 mg/kg) [µM·h]	MRT ([2]; PO 10 mg/kg) [h]	half-life ([2]; PO 10 mg/kg) [h]	bioavailability [2] [%]
CP(C)(=O)c1ccc(Nc2ccc(C(F)(F)F)cc2)c(-c2ncccn2)c1 [Example 12]	> 2.42	34.9	76.3	1.17	54.2	114	24.9	21.8	65
CP(C)(=O)c1ccc2c(Oc3ccc(C(F)(F)F)cc3)cccc2c1 [Example 7]	> 2.42	44.5	20.5	2	15.7	308	28.5	19.5	142
CP(C)(=O)c1ccc(Nc2ccc(C(F)(F)F)cc2)c(-c2ccccn2)c1 [Example 10]	> 2.42	21.7	26.5	3	19	152	25.7	17.8	140
CP(C)(=O)c1cnc(Nc2ccc(C(F)(F)F)cc2)c(-c2cn3c(n2)CCC3)c1 [Example 22]	> 2.42	6.42	7.6	11	5.8	32.2	9.6	7.3	95
Cc1ccc(Oc2ccc(C(F)(F)F)cc2)c2ccc(P(C)(C)=O)cc12 [Example 24]	1.98								
Cn1cnc(-c2cc(P(C)(C)=O)cnc2Nc2ccc(C(F)(F)F)cc2)c1 [Example 8]	> 2.42	8.89	7.8	9	6.2	59.3	20.6	14.7	133
CP(C)(=O)c1ccc2c(c1)c1ccccc1n2-c1ccc(C(F)(F)F)cc1 [Example 1]	> 2.42	113	46.3	0.333	32.4	605	69.9	66.9	107
Cn1cnc(-c2cc(P(C)(C)=O)ccc2Nc2ccc(C(F)(F)F)cc2)c1 [Example 14]	> 2.42	16.9	10.2	4.67	8.1	83.2	15	10.9	98

From EP4596561A1, “PHOSPHORUS-CONTAINING COMPOUND, PHARMACEUTICAL COMPOSITION AND USE THEREOF” (Suzhou Genhouse Bio Co., Ltd., priority 2022, dated 2024)
